The target of this test is Biotinylated ASGPR (ASGPr H1 wild type) (Homo sapiens (Human), UniProt P07306). As to the kind of experiment: Surface plasmon resonance (SPR) binding assay. Particulars: Biacore 3000, 25° C, immobilized biotinylated ASGPR, each run separately reported or n and standard deviation noted, steady state fit for compounds and single conjugates, kinetic fit for multimeric conjugates. How it is done:
Preparation of Biotinylated ASGPR:
ASGPr H1 wild type was expressed as an insoluble inclusion body (IB) in E. coli. The cell pellet was re-suspended in TBS buffer pH 8.0 with 0.1 mg/mL lysozyme+25 microg/mL DNase+10 microg/mL RNase+10 mM MgCl2 and stirred on ice until well blended. The mixture was passed through a microfluidizer twice and centrifuged 30 minutes at 30,000×g. The resultant IB pellet was washed with TBS buffer pH 8.0+3M urea and centrifuged and this process was repeated three additional times with water. The IB pellet was
solubilized in 10 mM Tris+8M urea+100 mM β-mercaptoethanol (pH 8.5), stirred for approximately 20 minutes, then centrifuged to discard any precipitate. For the following manipulations, “buffer T” refers to 20 mM Tris+0.5 M NaCl+25 mM CaCl2. The supernatant was diluted to approximately 0.5 mg/mL in buffer T+2 mM β-mercaptoethanol+8M urea (pH 8.0), then dialysed vs. 8-10× excess volume of buffer T+2 mM β-mercaptoethanol+2 M urea (pH 8.0) overnight at 4° C. Dialysis was repeated in buffer T+1 mM β-mercaptoethanol+1 M urea (pH 8.0) for approximately 24 h at 4° C. with several volume changes with a final dialysis vs. buffer T+5 mM GSH+1 mM GSSG (pH 7.5) with 3 volume changes. The resulting sample was centrifuged and the supernatant was loaded onto an N-acetyl-D-galactosamine agarose packed Pharmacia XK 26 column, equilibrated in buffer T+2 mM TCEP (pH 8.0). The column was washed with this buffer until baseline was re-established. The bound protein was eluted with 20 mM Tris+0.5 M NaCl+2 mM TCEP+2 mM EDTA (pH 8.0). The final yield was approximately 50 mg from 5 L (70 wgm.) E. coli cell pellet. While BSA has one cysteine (Cys34) not engaged in disulfide bonding, this thiol group is often blocked as a mixed disulfide with small thiols such as cysteine, or as the sulfenic acid by aerobic oxidation. […] Mild disulfide reduction conditions were chosen so as not to disrupt buried intra-strand (solvent inaccessible) crosslinks. Thus, immediately prior to biotinylation, the ASGPR sample was first incubated with 1 mM TCEP to ensure that the sample contained a single free thiol. The protein was reacted with a 19-fold molar excess of Pierce Maleimide-PEG2-biotin reagent in PBS overnight at 4° C. Excess biotin was removed from the sample using either PD-10 columns (GE Healthcare) or Zeba Spin Desalting columns (Thermo/Pierce) using manufacturer protocols. LC-MS analysis of the product verified the presence of a single mass with addition of 525 amu consistent with the molecular weight of the maleimide adduct. […] No such outcomes were observed. […] SPR Binding Measurements:
All SPR measurements with compounds were performed using a Biacore 3000 (GE Healthcare) at 25° C. Biotinylated ASGPR was immobilized typically at 2000-3000 resonance units (Ru) using either SA sensor chips (GE Healthcare) or custom sensor chips with Neutravidin (Pierce Biochemical) immobilized by standard amine coupling to CM5 sensor chips (GE Healthcare). The running buffer was HBS (10 mM HEPES, 150 mM NaCl), 20 mM CaCl2, 0.01% p20, 3% DMSO or 50 mM tris, 150 mM NaCl, 50 mM CaCl2), 0.01% p20, 3% DMSO pH 7.5. Compounds were diluted into running buffer at a concentration of 900 uM and serially diluted 3 fold to 3.7 uM. Compound solutions were injected at 50 ul/min for 1 min followed by a 1 min dissociation in duplicate for each concentration. For the multimeric conjugates (dimers, trimers), the conjugates were diluted in running buffer to concentrations of 100 nM or 10 nM and serially diluted. Conjugates were injected for 2 min and off rates were detected for 300 or 600 sec. After completion of off phase data the compounds were displaced using an injection of 900 uM GalNAc returning the receptor surface to the free state. All data was processed using Scrubber2 (Biologic Software, Inc.) to zero, align, reference and correct for excluded volume effects. […]

Results on 17 compounds are retold here after US10376531B2, “Substituted-6,8-dioxabicyclo[3.2.1]octane-2,3-diol compounds as targeting agents of ASGPR” (Pfizer Inc., priority 2014, dated 2019).

Each structure is given as a SMILES string. Where “and” joins values, the source holds several entries; their conditions need not be identical. Equal values may be shown once.

Biotinylated ASGPR (ASGPr H1 wild type), sequence (P07306 161-278): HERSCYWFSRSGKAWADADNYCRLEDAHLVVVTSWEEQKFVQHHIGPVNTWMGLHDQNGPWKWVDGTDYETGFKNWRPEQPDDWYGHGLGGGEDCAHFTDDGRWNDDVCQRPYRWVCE

One may read the Kd as the constant that tells how readily two partners part at equilibrium. A low value points to higher affinity. Consider `CCCCOC[C@@]12CO[C@@H](O1)[C@H](NC(C)=O)[C@@H](O)[C@H]2O` [Compound 19, N-[(1S,2R,3R,4R,5S)-1-(butoxymethyl)-2,3-dihydroxy-6,8-dioxabicyclo[3.2.1]oct-4-yl]acetamide], for which the equilibrium dissociation constant (Kd) is 3.3 µM and 3.2 µM and 7.7 µM.

In turn, `[N-]=[N+]=N[C@H]1[C@H]2OC[C@](CO)(O2)[C@H](O)[C@@H]1O` [Compound 1, (1S,2R,3R,4R,5S)-4-azido-1-(hydroxymethyl)-6,8-dioxabicyclo[3.2.1]octane-2,3-diol] yielded a Kd of 9 µM.

In the case of `CCC(=O)N[C@H]1[C@H]2OC[C@](CO)(O2)[C@H](O)[C@@H]1O` [Compound 25, N-[(1S,2R,3R,4R,5S)-2,3-dihydroxy-1-(hydroxymethyl)-6,8-dioxabicyclo[3.2.1]oct-4-yl]propanamide], the Kd is 2.2 µM and 3 µM and 2.7 µM and 3.2 µM and 4.3 µM.

Regarding `COCCOCCOCCOCCOC[C@@]12CO[C@@H](O1)[C@H](NC(C)=O)[C@@H](O)[C@H]2O` [Compound 22, N-[(1S,2R,3R,4R,5S)-2,3-dihydroxy-1-(2,5,8,11,14-pentaoxapentadec-1-yl)-6,8-dioxabicyclo[3.2.1]oct-4-yl]acetamide], the Kd was 5.5 µM and 7.2 µM and 6.7 µM.

For the compound `O=C(CC(F)(F)F)N[C@H]1[C@H]2OC[C@](CO)(O2)[C@H](O)[C@@H]1O` [Compound 28, N-[(1S,2R,3R,4R,5S)-2,3-dihydroxy-1-(hydroxymethyl)-6,8-dioxabicyclo[3.2.1]oct-4-yl]-3,3,3-trifluoropropanamide], the Kd is 1.2 µM and 1.8 µM and 2.1 µM and 1.4 µM and 2.4 µM and 2.9 µM.

For `CC(=O)N(C)[C@H]1[C@H]2OC[C@](CO)(O2)[C@H](O)[C@@H]1O` [Compound 29, N-[(1S,2R,3R,4R,5S)-2,3-dihydroxy-1-(hydroxymethyl)-6,8-dioxabicyclo[3.2.1]oct-4-yl]-N-methylacetamide], the Kd was 6.9 µM and 11.6 µM and 8.8 µM and 15.9 µM and 11.7 µM and 6.4 µM.

In the case of `CCCCCOC[C@@]12CO[C@@H](O1)[C@H](NC(C)=O)[C@@H](O)[C@H]2O` [Compound 20, N-{(1S,2R,3R,4R,5S)-2,3-dihydroxy-1-[(pentyloxy)methyl]-6,8-dioxabicyclo[3.2.1]oct-4-yl}acetamide], the Kd was 2.18 µM and 3.8 µM and 4.2 µM.

Turning to `CCOC[C@@]12CO[C@@H](O1)[C@H](NC(C)=O)[C@@H](O)[C@H]2O` [Compound 17, N-[(1S,2R,3R,4R,5S)-1-(ethoxymethyl)-2,3-dihydroxy-6,8-dioxabicyclo[3.2.1]oct-4-yl]acetamide], the Kd is 5.3 µM and 3.4 µM and 2.6 µM.

Take `CCCCCCOC[C@@]12CO[C@@H](O1)[C@H](NC(C)=O)[C@@H](O)[C@H]2O` [Compound 21, N-{(1S,2R,3R,4R,5S)-1-[(hexyloxy)methyl]-2,3-dihydroxy-6,8-dioxabicyclo[3.2.1]oct-4-yl}acetamide]: the Kd is 3.4 µM and 1.8 µM.

Turning to `CS(=O)(=O)N[C@H]1[C@H]2OC[C@](CO)(O2)[C@H](O)[C@@H]1O` [Compound 26, N-[(1S,2R,3R,4R,5S)-2,3-dihydroxy-1-(hydroxymethyl)-6,8-dioxabicyclo[3.2.1]oct-4-yl]methanesulfonamide], the Kd was 60 µM and 96 µM and 140 µM and 110 µM and 149 µM and 117 µM.

For `CCCOC[C@@]12CO[C@@H](O1)[C@H](NC(C)=O)[C@@H](O)[C@H]2O` [Compound 18, N-[(1S,2R,3R,4R,5S)-2,3-dihydroxy-1-(propoxymethyl)-6,8-dioxabicyclo[3.2.1]oct-4-yl]acetamide], the Kd was 2.8 µM and 3.8 µM and 3.1 µM and 2.3 µM.

`O=C(N[C@H]1[C@H]2OC[C@](CO)(O2)[C@H](O)[C@@H]1O)C(F)F` [Compound 27, N-[(1S,2R,3R,4R,5S)-2,3-dihydroxy-1-(hydroxymethyl)-6,8-dioxabicyclo[3.2.1]oct-4-yl]-2,2-difluoroacetamide]: the Kd is 0.7 µM and 1.9 µM and 1.2 µM and 1 µM and 1.5 µM and 0.5 µM.

`O=C(N[C@H]1[C@H]2OC[C@](CO)(O2)[C@H](O)[C@@H]1O)C(F)(F)F` [Compound 24, N-[(1S,2R,3R,4R,5S)-2,3-dihydroxy-1-(hydroxymethyl)-6,8-dioxabicyclo[3.2.1]oct-4-yl]-2,2,2-trifluoroacetamide]: the Kd was 1.1 µM and 2 µM and 2.3 µM and 1.4 µM (2×) and 700 nM and 800 nM and 1.6 µM.

`CC(=O)N[C@H]1[C@H]2OC[C@](CO)(O2)[C@H](O)[C@@H]1O` [Compound 3, N-((1S,2R,3R,4R,5S)-2,3-dihydroxy-1-(hydroxymethyl)-6,8-dioxabicyclo[3.2.1]octan-4-yl)acetamide] showed a Kd of 7.18 µM.

For the compound `CN([C@H]1[C@H]2OC[C@](CO)(O2)[C@H](O)[C@@H]1O)S(C)(=O)=O` [Compound 30, N-[(1S,2R,3R,4R,5S)-2,3-dihydroxy-1-(hydroxymethyl)-6,8-dioxabicyclo[3.2.1]oct-4-yl]-N-methylmethanesulfonamide], the Kd was 110 µM and 83 µM and 210 µM and 240 µM and 132 µM and 192 µM.

In the case of `CO[C@H]1OC(CO)(CO)[C@H](O)[C@H](O)[C@H]1NC(C)=O` [II-b], the equilibrium dissociation constant (Kd) was 199 µM and 240 µM and 260 µM and 300 µM.

As for `CN(C(=O)OC(C)(C)C)[C@H]1[C@H]2OC[C@](CO)(O2)[C@H](O)[C@@H]1O` [Compound 31, tert-butyl [(1S,2R,3R,4R,5S)-2,3-dihydroxy-1-(hydroxymethyl)-6,8-dioxabicyclo[3.2.1]oct-4-yl]methylcarbamate], the Kd was 14 µM and 10.6 µM and 15.6 µM and 17.3 µM.
